Patent US9006188B2, “Co-crystals of dapagliflozin” (Mapi Pharma Ltd., priority 2013, dated 2015)
Read-outs that look alike come from different tables or passages of the source.

Experiments:
[1] = Hygroscopicity by Dynamic Vapor Sorption (DVS), sorption/desorption profile; assay type: physicochemical; conditions: for appearance of sample after DVS testing: after DVS at 25° C., 0-95% relative humidity
Procedure: (§1) The preparation of lactose co-crystal and asparagine co-crystal were scaled up and repeated (about 400 mg of dapagliflozin free form was dissolved in 26 ml of IPA) and XRPD, PLM, TGA, DSC, NMR and DVS analyses were conducted for physicochemical properties evaluation. Before physicochemical properties evaluation, the solids precipitated out were isolated and dried off at 40° C. for 4 hours in vacuum drier. After hygroscopicity test, the sample was retested by XRPD to determine if any form transformation during the DVS test.
(§2) The sorption/desorption profiles of dapagliflozin Form I were tested at 25° C. under 0-95% relative humidity. […] This sample was tested by XRPD.

[2] = XRPD after DVS at 25° C., 0-95% relative humidity
Procedure: as §1, §2

[3] = −20° C., tightly closed, 1.5 month
Procedure: Dapagliflozin was stored at −20° C., tightly closed. After being stored for 1.5 month, it was characterized by XRPD, MDSC and TGA to check if it is stable.

[4] = DVS 25° C., cycle 1, target 0.0 % P/Po
[5] = DVS 25° C., cycle 1, target 5.0 % P/Po
[6] = DVS 25° C., cycle 1, target 10.0 % P/Po
[7] = DVS 25° C., cycle 1, target 15.0 % P/Po
[8] = DVS 25° C., cycle 1, target 20.0 % P/Po
[9] = DVS 25° C., cycle 1, target 25.0 % P/Po
[10] = DVS 25° C., cycle 1, target 30.0 % P/Po
[11] = DVS 25° C., cycle 1, target 35.0 % P/Po
[12] = DVS 25° C., cycle 1, target 40.0 % P/Po
[13] = DVS 25° C., cycle 1, target 45.0 % P/Po
[14] = DVS 25° C., cycle 1, target 50.0 % P/Po
[15] = DVS 25° C., cycle 1, target 55.0 % P/Po
[16] = DVS 25° C., cycle 1, target 60.0 % P/Po
[17] = DVS 25° C., cycle 1, target 65.0 % P/Po
[18] = DVS 25° C., cycle 1, target 70.0 % P/Po
[19] = DVS 25° C., cycle 1, target 75.0 % P/Po
[20] = DVS 25° C., cycle 1, target 80.0 % P/Po
[21] = DVS 25° C., cycle 1, target 85.0 % P/Po
[22] = DVS 25° C., cycle 1, target 90.0 % P/Po
[23] = DVS 25° C., cycle 1, target 95.0 % P/Po

weight gain from 0 to 95% RH ([1]; DVS 25° C., 0 to 95% RH): 23.33%
Change In Mass (%) - ref, Desorption [1, 4]: 10.18%
Change In Mass (%) - ref, Sorption [1, 4]: 0.00%
Change In Mass (%) - ref, Desorption [1, 5]: 10.26%
Change In Mass (%) - ref, Hysteresis [1, 5]: 10.18%
Change In Mass (%) - ref, Sorption [1, 5]: 0.09%
Change In Mass (%) - ref, Desorption [1, 6]: 10.34%
Change In Mass (%) - ref, Hysteresis [1, 6]: 10.20%
Change In Mass (%) - ref, Sorption [1, 6]: 0.14%
Change In Mass (%) - ref, Desorption [1, 7]: 10.42%
Change In Mass (%) - ref, Hysteresis [1, 7]: 10.19%
Change In Mass (%) - ref, Sorption [1, 7]: 0.23%
Change In Mass (%) - ref, Desorption [1, 8]: 10.50%
Change In Mass (%) - ref, Hysteresis [1, 8]: 10.20%
Change In Mass (%) - ref, Sorption [1, 8]: 0.30%
Change In Mass (%) - ref, Desorption [1, 9]: 10.58%
Change In Mass (%) - ref, Hysteresis [1, 9]: 10.16%
Change In Mass (%) - ref, Sorption [1, 9]: 0.41%
Change In Mass (%) - ref, Desorption [1, 10]: 10.66%
Change In Mass (%) - ref, Hysteresis [1, 10]: 10.10%
Change In Mass (%) - ref, Sorption [1, 10]: 0.55%
Change In Mass (%) - ref, Desorption [1, 11]: 10.74%
Change In Mass (%) - ref, Hysteresis [1, 11]: 9.91%
Change In Mass (%) - ref, Sorption [1, 11]: 0.83%
Change In Mass (%) - ref, Desorption [1, 12]: 10.83%
Change In Mass (%) - ref, Hysteresis [1, 12]: 9.65%
Change In Mass (%) - ref, Sorption [1, 12]: 1.18%
Change In Mass (%) - ref, Desorption [1, 13]: 10.97%
Change In Mass (%) - ref, Hysteresis [1, 13]: 9.22%
Change In Mass (%) - ref, Sorption [1, 13]: 1.75%
Change In Mass (%) - ref, Desorption [1, 14]: 11.15%
Change In Mass (%) - ref, Hysteresis [1, 14]: 8.85%
Change In Mass (%) - ref, Sorption [1, 14]: 2.31%
Change In Mass (%) - ref, Desorption [1, 15]: 11.35%
Change In Mass (%) - ref, Hysteresis [1, 15]: 8.46%
Change In Mass (%) - ref, Sorption [1, 15]: 2.89%
Change In Mass (%) - ref, Desorption [1, 16]: 11.59%
Change In Mass (%) - ref, Hysteresis [1, 16]: 8.05%
Change In Mass (%) - ref, Sorption [1, 16]: 3.54%
Change In Mass (%) - ref, Desorption [1, 17]: 11.95%
Change In Mass (%) - ref, Hysteresis [1, 17]: 7.67%
Change In Mass (%) - ref, Sorption [1, 17]: 4.27%
Change In Mass (%) - ref, Desorption [1, 18]: 12.47%
Change In Mass (%) - ref, Hysteresis [1, 18]: 7.53%
Change In Mass (%) - ref, Sorption [1, 18]: 4.94%
Change In Mass (%) - ref, Desorption [1, 19]: 13.23%
Change In Mass (%) - ref, Hysteresis [1, 19]: 7.02%
Change In Mass (%) - ref, Sorption [1, 19]: 6.21%
Change In Mass (%) - ref, Desorption [1, 20]: 14.44%
Change In Mass (%) - ref, Hysteresis [1, 20]: 5.71%
Change In Mass (%) - ref, Sorption [1, 20]: 8.73%
Change In Mass (%) - ref, Desorption [1, 21]: 16.99%
Change In Mass (%) - ref, Hysteresis [1, 21]: 4.90%
Change In Mass (%) - ref, Sorption [1, 21]: 12.09%
Change In Mass (%) - ref, Desorption [1, 22]: 21.36%
Change In Mass (%) - ref, Hysteresis [1, 22]: 4.66%
Change In Mass (%) - ref, Sorption [1, 22]: 16.70%
Change In Mass (%) - ref, Desorption [1, 23]: 23.33%
Change In Mass (%) - ref, Sorption [1, 23]: 23.33%
appearance of sample after DVS testing [1]: thick gel
appearance of sample after DVS testing ([1]; listed as dapagliflozin Form I): thick gel-like material
hygroscopicity classification ([1]; based on DVS weight gain from 0 to 95% RH): very hygroscopic
stability on storage (form transformation by XRPD, MDSC, TGA) [3]: stable
stability on storage (form transformation by XRPD, MDSC, TGA) ([3]; listed as Dapagliflozin): no form transformation was detected
SMILES: CCOc1ccc(Cc2cc([C@@H]3O[C@H](CO)[C@@H](O)[C@H](O)[C@H]3O)ccc2Cl)cc1 [Form I, (2S,3R,4R,5S,6R)-2-[4-chloro-3-(4-ethoxybenzyl)phenyl]-6-(hydroxymethyl)tetrahydro-2H-pyran-3,4,5-triol, reference compound]
form transformation after DVS test (XRPD) [2]: an amorphous form (not containing the 32 deg peak) was detected
form transformation after DVS test (XRPD) ([2]; listed as dapagliflozin Form I): the amorphous was found after testing DVS
